# Assay results: patent US5691338A, “1,2-dithiole-3 thiones for the treatment of reverse transcriptase-dependent viral infections” (priority 1995, dated 1997)
# Where a name gives a salt, the structure may show the parent alone. Read-outs that look alike come from different tables or passages of the source.
# Experiments:
# [1] = test system: HIV-1 (HTLVIIIB); assay: microbe, parasite or virus in culture; type: cell-based; conditions: H9 cells; for IC50: Human immunodeficiency virus 1
# Procedure: (§3) The effects for test compounds were assessed by means of both IFA and p24 release. In general, the following protocol was followed: H9 cells were infected with HIV-1 at 1000 50% infective doses of viruses/10^6 cells. Virus was allowed to adsorb for 1 h, after which unadsorbed virus was removed by centrifugation. The cells were resuspended and washed twice with PBS (without Ca^+2 or Mg^+2 salts) and centrifuged to collect the cell pellet (150×g×10 min). Cells were suspended in fresh medium and added at a final cell density of 500,000 cells/ml in a 96-well plate with media containing 0.1% DMSO and various concentrations of test compounds. The cells were re-fed freshly prepared media containing 0.1% DMSO±test compounds on day four (for preinduction experiments, cells were exposed to inducers on days -2, 0, and +4 days relative to infection). After seven days, cells were examined for cytoxicity by trypan blue exclusion, the degree of infection with HIV-1 by IFA, and the supernatants were assayed for p24 levels according to the manufacturer's directions. The IFA procedure can be summarized as follows: The cells were washed twice in PBS and were placed in 5 mm 12-well slides. After allowing the slides to dry and fixing the cells with acetone for 5 min, 10 μl of HIV-1 positive serum in 40 μl PBS was added to each well and allowed to incubate at 37° C. for 30 min. After incubation, the slides were washed twice with PBS and incubated at 37° C. for 30 min with 2.5 μl goat anti-human IgG-fluorescein isothiocyanate conjugate in 50 μl PBS containing 0.01% Evans Blue per well. The slides were then washed twice with PBS, dried, and mounted with 50% glycerol in PBS, and scored for the percentage of fluorescent cells by fluorescent microscopy.
# [2] = test system: glutathione levels (GSH) in H9 cells; assay: Elevation of glutathione (GSH) levels in H9 cells; type: cell-based, human; conditions: for fold induction at 30 µM / fold induction at 60 µM / fold induction at 120 µM: Homo sapiens, read-out: Glutathione levels, treated to control value; for elevation of GSH: dose- and time-dependent, H9 cells
# Procedure: (§1) Five ml of medium was added to T-25 flasks and DMSO containing tests compounds were added to a final concentration of 0.1%. Control medium contained 0.1% DMSO. After the drugs were added, 5×10^6 cells in 5 ml of medium was added to each T-25 flask. The cells were grown at 37° C. in a humidified incubator supplemented with 5% CO2 until harvested (N=3 flasks/group). At the indicated times, cells were isolated by centrifugation (500×g×10 min) and were washed three times by adding 10 ml of ice-cold DPBS, mixing, and centrifuging in a refrigerated centrifuge (500×g×10 min) to isolate the cell pellets. The cells were then lysed by the addition of 400 μl of ice-cold DPBS containing 0.5% Triton X-100 and vortexing. Supernatants were then isolated by centrifuging the lysates (5000×g×20 min). Samples were kept on ice or refrigerated until the reagents for QR or GSH spectrophotometric assays were added to the aliquoted microtiter plates. QR levels were determined by aliquoting 10 μl/well of supernatant in a 96-well plate and measuring the activity by the assay described by Prochaska and Santamaria (20) except that the final NADP^+ concentration was 200 μM (21). Samples were assayed in quadruplicate, and dicoumarol inhibitable-rates (which generally represented less than 5% of the total rate) were also measured. Spectrophotometric blanks contained 10 μl of DPBS with 0.5% Triton X-100. For the GSH assay, 300 μl of sample was placed in a centricon-10microconcentrator and centrifuged (5000×g×45 min) until enough ultrafiltrate could be collected. 50 μl/well of sample in quadruplicate was placed in a 96 well "half-area" plate after which 20 μl of 1 mM Ellman's reagent dissolved in DPBS was added. The yellow color (22) developed within 5 min and was scanned with a uvmax microtiter scanner (Palo Alto, Calif.) at 405 nm. Spectrophotometric blanks contained 50 μl DPBS with 0.5% Triton X-100 and 20 μl of 1 mM Ellman's reagent in DPBS. The optical densities of the specimens were calibrated to a GSH standard curve. Protein contents were determined in 3 ml cuvettes by the Bradford method (23). The protein content in the ultrafiltrates employed for GSH determinations were negligible (<0.01 mg/ml).
# [3] = test system: quinone reductase (QR) in H9 cells; assay: Elevation of quinone reductase (QR) in H9 cells; type: cell-based, human; conditions: for fold induction at 30 µM / fold induction at 60 µM / fold induction at 120 µM: Homo sapiens, read-out: Quinone reductase, treated to control value; for elevation of QR: dose- and time-dependent, H9 cells
# Procedure: as §1
# We confirmed that the induction of QR in microtiter wells mirrored our results in T-25 flasks by using the method of Prochaska and Santamaria (20). Medium (100 μl) containing 0.1% final concentration DMSO was added to all wells except columns designated to contain the highest concentration of drug or spectrophotometric blanks in duplicate sets of U-bottomed microtiter plates. 200 μl of media containing drug (final DMSO concentration=0.1%) was added to the empty column of wells and then diluted in 2-fold serial dilutions across. After the serial dilutions were performed, 100 μl of media containing 1×10^6 cells/ml was added to each well, and the plates were placed in a 37° C. incubator for 48 h. One set of plates was assayed as described (21) for QR activity, the other was assayed for cell number by the method for Alley et al. (24).
# [4] = test system: H9 cells; assay: Cytotoxicity in H9 cells by trypan blue exclusion; type: cell-based, human
# Procedure: as §3
# [5] = biological target: T1, HIV-1 reverse transcriptase (RT) (Human immunodeficiency virus type 1 group M subtype B, UniProt P04585); assay: Inhibition of recombinant HIV-1 reverse transcriptase (TTP incorporation); type: biochemical
# T1 construct: Recombinant HIV-1 reverse transcriptase (RT) was obtained from Worthington (Freehold, N.J.); purchased Worthington (Freehold, N.J.)
# Procedure: (§2) Reverse transcriptase assays were performed as described by Flexner, et al. (25) using recombinant HIV-1 RT as the source of enzyme. Dilutions and assay were carried out in 96-well "half-area" plates. The enzyme with various concentrations of test compounds were dissolved in DPBS containing 1% w/v BSA and diluted in 50 μl volumes; 10 μl aliquots in triplicate were transferred to another plate for the enzyme assay. The reactions were initiated by the addition of 25 μl/well of buffer containing 50 mM Tris.cndot.Cl (pH 8.0), 75 mM KCl, 1 mM dithiothreitol, 2 mM MgCl2, 5 μg/ml poly(A), 2.5 μg/ml oligo (dT), 10 μCi/ml ^32 p TTP with or without unlabeled TTP. […] TTP incorporation was measured by spotting 20 μl of the reaction cocktail onto DE81 paper, washing the paper with 4×5 min washes of 300 mM NaCl and 30 mM sodium citrate (pH 7.0), drying the paper, and counting the paper by liquid scintillation counting. The assays performed with oltipraz and 1,2-dithiole-3-thione contained 0.29% final concentration DMSO. This concentration of DMSO had no effect on RT activity.
# [6] = biological target: T1, HIV-1 reverse transcriptase (RT); assay: Time-dependent (irreversible) inhibition of HIV-1 reverse transcriptase after preincubation; type: biochemical; conditions: kinetic behaviour
# Procedure: FIG. 6. […] RT was preincubated for the times indicated with oltipraz dissolved in DPBS containing 1 mg/ml bovine serum albumin, 0.13% DMSO, and either 4 μM TTP or 5 μg/ml poly(A):2.5 μg/ml oligo(dT). After incubation, 10 μl aliquots in triplicate were added to 25 μl of a reaction cocktail containing 4 μM TTP, 5 μg/ml poly(A), and 2.5 μg/ml oligo(dT) and assayed for TTP incorporation into DNA over 30 min. as described by Flexner, et al. (25). The insets are Kitz-Wilson transformations (41).
# as §2, with “DMSO.” for “DMSO. This concentration of DMSO had no effect on RT activity.”
# [7] = Exp 1, IFA, read-out: IC50 HIV-1 replication (Exp 1)
# [8] = Exp 2, IFA, read-out: IC50 HIV-1 replication (Exp 2)
structure (smiles),measurement,setting,value
O=c1cc(-c2cnccn2)ss1 [compound 3],IC50 HIV-1 replication (Exp 2),"[1]; Exp 2, IFA",Inactive
same,IC50,[1]; [7],4 µM
S=c1cc(-c2ccccc2)ss1 [compound 1],IC50 HIV-1 replication (Exp 1),"[1]; Exp 1, IFA",Inactive
same,IC50 HIV-1 replication (Exp 2),"[1]; Exp 2, IFA",Inactive
CC(C)N(C(=O)Cc1c(-c2cncnc2)ssc1=S)C(C)C [compound 21],IC50,[1]; [7],1 µM
same,IC50,[1]; [8],> 60 µM
"S=c1ccss1 [1,2-dithiole-3-thione]",Glutathione Levels,"[2]; 48 h, 30 μM",53.5 ± 7.1 nmol/mg
same,Glutathione Levels,"[2]; 48 h, 60 μM",57.5 ± 1.3 nmol/mg
same,Glutathione Levels,"[2]; 48 h, 120 μM",74.9 ± 3.6 nmol/mg
same,Glutathione Levels,"[2]; 96 h, 30 μM",59.4 ± 1.4 nmol/mg
same,Glutathione Levels,"[2]; 96 h, 60 μM",65.0 ± 2.1 nmol/mg
same,Glutathione Levels,"[2]; 96 h, 120 μM",109 ± 28 nmol/mg
same,fold induction at 30 µM,"[2]; H9, 48 h",1.17
same,fold induction at 60 µM,"[2]; H9, 48 h",1.26
same,fold induction at 120 µM,"[2]; H9, 48 h",1.63
same,fold induction at 30 µM,"[2]; H9, 96 h",1.17
same,fold induction at 60 µM,"[2]; H9, 96 h",1.71
same,fold induction at 120 µM,"[2]; H9, 96 h",2.15
same,elevation of GSH,[2],able to elevate both GSH and QR levels
same,Quinone Reductase Specific Activity,"[3]; 48 h, 30 μM",232 ± 16 nmol/min/mg
same,Quinone Reductase Specific Activity,"[3]; 48 h, 60 μM",244 ± 12.1 nmol/min/mg
same,Quinone Reductase Specific Activity,"[3]; 48 h, 120 μM",299 ± 11 nmol/min/mg
same,Quinone Reductase Specific Activity,"[3]; 96 h, 30 μM",59.4 ± 1.4 nmol/min/mg
same,Quinone Reductase Specific Activity,"[3]; 96 h, 60 μM",65.0 ± 2.1 nmol/min/mg
same,Quinone Reductase Specific Activity,"[3]; 96 h, 120 μM",109 ± 28 nmol/min/mg
same,fold induction at 30 µM,"[3]; H9, 48 h",1.61
same,fold induction at 60 µM,"[3]; H9, 48 h",1.67
same,fold induction at 120 µM,"[3]; H9, 48 h",2.07
same,fold induction at 30 µM,"[3]; H9, 96 h",1.17
same,fold induction at 60 µM,"[3]; H9, 96 h",1.71
same,fold induction at 120 µM,"[3]; H9, 96 h",2.15
same,elevation of QR,[3],able to elevate both GSH and QR levels
same,inhibition of HIV-1 replication,[1]; up to 120 μM,inactive
same,cytotoxicity at optimal inductive doses,"[4]; up to 30 μM (tert-butylhydroquinone), 120 μM (1,2-dithiole-3-thione), 60 μM (dimethyl fumarate)",non-cytotoxic
same,inhibition of recombinant HIV-1 reverse transcriptase,[5]; poly(A):oligo(dT) and TTP as substrates,inactive
"Cc1c(-c2cccs2)ssc1=S [compound 9, 4-methyl-5-(2-thiofuranyl)-1,2-dithiole-3-thione]",IC50,[1]; [7],0.4 µM
same,IC50,[1]; [8],2 µM
same,IC50,"[1]; N=5 independent experiments, IFA, read-out: IC50 HIV-1 replication",1.8 ± 0.7 µM
same,irreversible inhibition of reverse transcriptase,[6],behaves kinetically as an irreversible inhibitor of reverse transcriptase
Cc1c(-c2ccncc2)ssc1=S [compound 7],IC50,[1]; [7],60 µM
same,IC50,[1]; [8],60 µM
COC(=O)/C=C/C(=O)OC [dimethyl fumarate],elevation of GSH,[2],able to elevate both GSH and QR levels
same,elevation of QR,[3],able to elevate both GSH and QR levels
same,inhibition of HIV-1 replication,[1]; up to 60 μM,inactive
same,cytotoxicity at optimal inductive doses,[4],non-cytotoxic
Cc1ncc(-c2cc(=S)ss2)nc1C [compound 4],IC50 HIV-1 replication (Exp 1),"[1]; Exp 1, IFA",Inactive
same,IC50 HIV-1 replication (Exp 2),"[1]; Exp 2, IFA",Inactive
CCOC(=O)c1c(-c2ccccn2)ssc1=S [compound 16],IC50,[1]; [7],1 µM
same,IC50,[1]; [8],4 µM
Cc1c(-c2cccnc2)ssc1=S [compound 6],IC50 HIV-1 replication (Exp 2),"[1]; Exp 2, IFA",Inactive
same,IC50,[1]; [7],10 µM
Cc1c(-c2ccccn2)ssc1=S [compound 5],IC50,[1]; [7],3 µM
same,IC50,[1]; [8],10 µM
CC(C)c1ccc(Nc2ssc(=S)c2Cl)cc1 [compound 18],IC50,[1]; [7],0.4 µM
same,IC50,[1]; [8],> 60 µM
Cc1c(-c2cnccn2)ssc1=O [compound 12],IC50 HIV-1 replication (Exp 2),"[1]; Exp 2, IFA",Inactive
same,IC50,[1]; [7],10 µM
"Cc1cn([C@H]2C[C@H](N=[N+]=[N-])[C@@H](COP(=O)(O)OP(=O)(O)OP(=O)(O)O)O2)c(=O)[nH]c1=O [AZT triphosphate, 3'-azido-3'-deoxythymidine-5'-triphosphate]",potency relative to oltipraz (reverse transcriptase),[5]; identical assay conditions,approximately 1000 fold
CCCCc1c(-c2ccc(N(C)C)nn2)ssc1=S [compound 24],IC50 HIV-1 replication (Exp 1),"[1]; Exp 1, IFA",Inactive
same,IC50 HIV-1 replication (Exp 2),"[1]; Exp 2, IFA",Inactive
Cc1c(C=Cc2cnccn2)ssc1=S [compound 10],IC50,[1]; [7],> 60 µM
same,IC50,[1]; [8],> 60 µM
CCOC(=O)c1c(-c2ccncc2)ssc1=S [compound 17],IC50,[1]; [7],15 µM
same,IC50,[1]; [8],> 60 µM
CCc1c(-c2cnccn2)ssc1=S [compound 14],IC50,[1]; [7],15 µM
same,IC50,[1]; [8],15 µM
CC(C)(C)c1cc(O)ccc1O [tert-butylhydroquinone],elevation of GSH,[2],able to elevate both GSH and QR levels
same,elevation of QR,[3],able to elevate both GSH and QR levels
same,inhibition of HIV-1 replication,[1]; up to 30 μM,inactive
same,cytotoxicity at optimal inductive doses,[4],non-cytotoxic
Cc1c(-c2cccnn2)ssc1=S [compound 8],IC50,[1]; [7],2 µM
same,IC50,[1]; [8],4 µM
S=c1ssc(-c2cccnn2)c1CCc1ccccc1 [compound 22],IC50,[1]; [7],0.4 µM
same,IC50,[1]; [8],> 60 µM
CCCCc1c(-c2cnccn2)ssc1=S [compound 15],IC50,[1]; [7],2 µM
same,IC50,[1]; [8],2 µM
CCOC(=O)Cc1c(-c2cncnc2)ssc1=S [compound 20],IC50,[1]; [7],> 60 µM
same,IC50,[1]; [8],> 60 µM
COc1ccc(-c2cc(=S)ss2)cc1 [compound 2],IC50 HIV-1 replication (Exp 1),"[1]; Exp 1, IFA",Inactive
same,IC50 HIV-1 replication (Exp 2),"[1]; Exp 2, IFA",Inactive
CC(C)c1ccc(Nc2ssc(=O)c2Cl)cc1 [compound 19],IC50,[1]; [7],> 60 µM
same,IC50,[1]; [8],1 µM
CN(C)CCCON=c1cc(-c2ccncc2)ss1 [compound 23],IC50,[1]; [7],0.4 µM
same,IC50,[1]; [8],> 60 µM
OCc1c(-c2cnccn2)ssc1=S [compound 13],IC50,[1]; [7],0.4 µM
same,IC50,[1]; [8],0.2 µM
